Reference: patent US10993935B2, “Compositions and methods for treatment of lung infections” (priority 2018, dated 2021)

Columns and labels:
P. aeruginosa = experiment: Uronic acid carbazole assay of alginate production; assay type: cell-based, Pseudomonas aeruginosa
Description: Data shown represent means of 5 replicates per group ±standard error (SE). Two-way ANOVA analysis was used with statistical significance set as a P value of <0.01 (****, P<0.0001; **, P<0.001; *, P<0.01).
Uronic Acid Carbazole Assay. Alginate production was measured via carbazole assay. Laboratory and clinical isolate strains were grown in PIB from a single colony isolation. The strains were then plated on 150 mm agar plates containing no antibiotic; RFX at concentrations of 10 μM (MIC50), 6 μM (MIC30), 2 μM (MIC10), and 0.2 μM (MIC1); or TOB at concentrations of 2 μM (MIC50), 1.2 μM (MIC30), 0.4 μM (MIC10), and 0.04 μM (MIC1) and incubated at 37° C. for 48 h. Sterile PBS (30 mL) was added to the plates and the cells plus their mucoid film were collected into 50 mL conical tubes. A 1 mL sample was taken to measure growth via OD at 600 nm. A 700 μL sample was then added to tubes containing 6 mL of a sulfuric acid-borate solution. A 200 μL aliquot of 0.1% carbazole was then added to the tubes and incubated for 30 m at 55° C. The alginate was then measured via OD at 530 nm and plotted against a standard curve made with D-mannuronic acid (Sigma-Aldrich). The reported values represent an average from three independent alginate collections with standard deviation.
To investigate the extent of this inhibition, PAO1, PAO581, and two mucoid P. aeruginosa CF isolates (CF001 and CF010) were grew on PIA plates containing sub-MIC concentrations of either TOB or RFX and measured alginate production with the carbazole assay. […] The MIC normalization was used to compare the effect of the two drugs on inhibition of alginate production, as this allowed the measurement of alginate made by the same number of bacterial cells.

P. aeruginosa PAO1 = experiment: Murine pneumonia model, single-dose treatment, survival; assay type: in vivo, DBA/2 mice; settings: 12 mice per group
Description: Kaplan-Meier curves showing percent survival of DBA/2 mice with P. aeruginosa PAO1 infection after treatment with RFX or TOB at 0 h post-infection (FIG. 5A), 6 h post-infection (FIG. 5B), and 12 h post-infection (FIG. 5C). Data shown represent means of 12 mice per group. The Mantel-Cox test was used with significance set at a P value of <0.01 and showing standard error (SE) bars.
Murine Pneumonia Model Treatment. TOB or RFX were used to treat P. aeruginosa respiratory infection in a DBA/2 mouse model established previously. Lung infection was induced by a single exposure to a total of 84 male DBA/2 mice of 8 week old (Charles River Laboratories) to P. aeruginosa PAO1 aerosols, which was prepared as previously reported. Immediately after infection, the mice were separated into seven groups (n=12 per group): 1) control with no treatment, 2) treatment with 300 mg TOB immediately after infection, 3) treatment with 300 mg RFX immediately after infection, 4) treatment with 300 mg TOB 6 h after infection, 5) treatment with 300 mg RFX 6 h after infection, 6) treatment with 300 mg TOB 12 h after infection, or 7) treatment with 300 mg RFX 12 h after infection. Each experimental group was treated with TOB or RFX with a control group treated with PBS following the nebulization protocol as described above. The mice were monitored for survival at 12 hour intervals for 72 hours and then at 24 hour intervals for 6 weeks.
After establishing the dosing of TOB or RFX to efficiently reach the lungs, the efficacy of both drugs against P. aeruginosa lung infections was compared using an established mouse model. DBA/2 (n=84) male mice were first infected with aerosolized P. aeruginosa PAO1 in a whole-body exposure chamber as previously described. The mice were then separated into four groups. One group was left untreated to determine the rate of mortality (control). The remaining three groups were treated with RFX or TOB using a pressure-based nebulizer and whole-body exposure chamber at a concentration of 300 mg at 0 h, 6 h, or 12 h post infection. All control mice died within 5 days (FIGS. 5A-5C), consistent with what was previously reported. […] In the 12 h treatment group, 83% of mice treated with RFX survived, while only 50% of mice treated with TOB survived (FIG. 5C).

P. aeruginosa strains = experiment: MIC and synergy testing (checkerboard/isobologram) of RFX and TOB; assay type: cell-based, Pseudomonas aeruginosa; settings: for MIC TOB: TOB alone; for MIC TOB in Combination: in combination with RFX; for MIC RFX: RFX alone; for MIC RFX in Combination: in combination with TOB
Description: Minimum Inhibitory Concentration Testing. MIC testing was performed as previously described. Briefly, overnight culture of bacteria was diluted in 1:100 of a 0.5 McFarland standard as inoculum. The same number of cells was grown in LB broth containing serial, two-fold dilutions of rifaximin (RFX) or tobramycin (TOB). Growth was measured via optical density (OD) at 600 nm after 24 h incubation at 37° C. Concentrations of antibiotic required for inhibition of 50% and 90% of strains were determined.
Synergy Testing. Synergistic potential of RFX and TOB was performed by isobologram (checkerboard) analysis in 96-well plate format Briefly, PIB containing serial dilutions of each drug were plated in 64 wells of a 96-well plate with one drug vertically plated and the other horizontally plated. Bacterial cells of P. aeruginosa were grown 4 to 6 hours to an early log phase and then added to the wells of the plate. Growth in the wells was measured via OD at 600 nm after 24 h incubation at 37° C. The MIC and Fractional Inhibition Concentration (FIC) were calculated to determine synergism, antagonism or additivity between the tested strains of P. aeruginosa: PAO1, PAO581, PAO581 isogenic mutant, CF001, and CF010. The summative ΣFTC was calculated from the FICs and interpreted according to the standard index values: synergy ≤0.5; indifferent 0.5< to ≤4; antagonism >4. […]

[1] = non-mucoid strain PAO1, sub-MIC concentrations (MIC1-MIC50) on PIA, TOB versus RFX
[2] = 300 mg nebulized at 0 h after infection
[3] = 300 mg nebulized at 6 h post infection
[4] = 300 mg nebulized at 12 h post infection

## NC[C@H]1O[C@H](O[C@H]2[C@H](O)[C@@H](O[C@H]3O[C@H](CO)[C@@H](O)[C@H](N)[C@H]3O)[C@H](N)C[C@@H]2N)[C@H](N)C[C@@H]1O [TOB, tobramycin]
P. aeruginosa; [1]
  alginate production: no significant difference in alginate production
P. aeruginosa PAO1; [2]
  survival: 92%
P. aeruginosa PAO1; [3]
  survival: 58%
P. aeruginosa PAO1; [4]
  survival: 50%
P. aeruginosa strains; strain CF001, M
  FIC TOB: 0.25
  MIC TOB: 2
  MIC TOB in Combination: 0.5
P. aeruginosa strains; strain CF003, NM
  MIC TOB: 2
  MIC TOB in Combination: 0.25
P. aeruginosa strains; strain CF010, M
  FIC TOB: 0.25
  MIC TOB: 2
  MIC TOB in Combination: 0.5
P. aeruginosa strains; strain PAO1, NM
  FIC TOB: 0.125
  MIC TOB: 2
  MIC TOB in Combination: 0.25
P. aeruginosa strains; strain PAO581, M
  FIC TOB: 0.25
  MIC TOB: 2
  MIC TOB in Combination: 0.5
P. aeruginosa strains; strain PAO581 NM revertant
  FIC TOB: 0.25
  MIC TOB: 2
  MIC TOB in Combination: 0.5

## CO[C@H]1/C=C/O[C@@]2(C)Oc3c(C)c(O)c4c(O)c(c5c(nc6cc(C)ccn65)c4c3C2=O)NC(=O)/C(C)=C\C=C\[C@H](C)[C@H](O)[C@@H](C)[C@@H](O)[C@@H](C)[C@H](OC(C)=O)[C@@H]1C [RFX, rifaximin]
P. aeruginosa; mucoid CF isolates CF001 and CF010, compared to TOB
  alginate production: significant decrease in alginate production
P. aeruginosa; mucoid strain PAO581, all concentrations tested, compared to TOB
  alginate production: significantly decreased alginate production
P. aeruginosa; [1]
  alginate production: no significant difference in alginate production
P. aeruginosa PAO1; [2]
  survival: 100%
P. aeruginosa PAO1; [3]
  survival: 92%
P. aeruginosa PAO1; [4]
  survival: 83%
P. aeruginosa strains; strain CF001, M
  FIC RFX: 0.25
  MIC RFX: 16
  MIC RFX in Combination: 4
P. aeruginosa strains; strain CF003, NM
  MIC RFX: 4
P. aeruginosa strains; strain CF010, M
  FIC RFX: 0.25
  MIC RFX: 8
  MIC RFX in Combination: 2
P. aeruginosa strains; strain PAO1, NM
  FIC RFX: 0.25
  MIC RFX in Combination: 4
P. aeruginosa strains; strain PAO1, NM (non-mucoid)
  MIC RFX: 16
P. aeruginosa strains; strain PAO581, M
  FIC RFX: 0.25
  MIC RFX in Combination: 4
P. aeruginosa strains; strain PAO581, M (mucoid)
  MIC RFX: 16
P. aeruginosa strains; strain PAO581 NM revertant
  FIC RFX: 0.25
  MIC RFX: 16
  MIC RFX in Combination: 4
